# According to patent US5246959A, “Poly(aminoalkyl)aminocarbonyl aminoacyl aminodiol amino acid derivatives as anti-hypertensive agents” (G. D. Searle & Co., priority 1991, dated 1993):
# Where a SMILES comes first, the peptide text is derived from it. [ ]: non-standard residue; d: D form. The star is where a group is joined. Sta = CC(C)C[C@H](N)[C@@H](O)CC(=O)O; Isovaleryl = CC(C)CC(=O)*
# Legend:
# Human Renin = target: T1, Human Renin (Homo sapiens, UniProt P00797); assay: human renin inhibition test in vitro (angiotensin I by radioimmunoassay); format: biochemical; conditions: pH 7.4, 37° C., two hours, human plasma
# T1 construct: purchased National Institute for Biological Standards, London
# T1 sequence (P00797 67-406): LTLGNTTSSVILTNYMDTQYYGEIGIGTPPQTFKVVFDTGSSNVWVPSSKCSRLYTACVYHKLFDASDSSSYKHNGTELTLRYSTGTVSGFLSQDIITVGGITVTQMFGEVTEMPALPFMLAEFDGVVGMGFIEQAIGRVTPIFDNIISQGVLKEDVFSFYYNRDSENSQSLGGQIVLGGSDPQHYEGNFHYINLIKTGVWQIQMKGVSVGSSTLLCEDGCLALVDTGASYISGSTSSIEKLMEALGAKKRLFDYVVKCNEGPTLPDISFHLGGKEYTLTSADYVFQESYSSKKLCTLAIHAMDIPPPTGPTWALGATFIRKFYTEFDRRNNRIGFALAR
# Protocol: Compounds of Formula I were evaluated as inhibitors of human renin in an in vitro assay, as follows: This human renin inhibition test has been previously described in detail [Papaioannou et al., Clinical and Experimental Hypertension, A7(9), 1243-1257 (1985)]. Human renin was obtained from the National Institute for Biological Standards, London. An incubation mixture was prepared containing in a total volume of 0.25 mL 100 mM Tris-acetate buffer at pH 7.4, 25×10^-6 Goldblatt units of renin, 0.05 mL of plasma from human volunteers taking oral contraceptives, 6.0 mM sodium EDTA, 2.4 mM phenylmethyl sulfonyl fluoride, 1.5 mM 8-hydroxyquinoline, 0.4 mg/mL BSA, and 0.024 mg/mL neomycin sulfate. This mixture was incubated for two hours at 37° C. in the presence or absence of renin inhibitors. The produced angiotensin I was determined by radioimmunoassay (New England Nuclear kit). Test compounds to be assayed were solubilized in DMSO and diluted with 100 mM Trisacetate buffer at pH 7.4 containing 0.5% bovine serum albumin (BSA) to the appropriate concentration. The final concentration of organic solvent in the reaction mixture was less than 1%. Control incubations at 37° C. were used to correct for effects of organic solvent on renin activity.
# pepsin = conditions: cited from earlier work
# renin = conditions: cited from earlier work
# hog renin = conditions: after injection of hog renin into nephrectomized rats; cited from earlier work
# cathepsin D = conditions: cited from earlier work
compound,measurement,setting,value
"CC(C)C[C@H](O)[C@H](O)[C@H](CC1CCCCC1)NC(=O)[C@H](Cc1cnc[nH]1)NC(=O)[C@H](Cc1ccccc1)OC(=O)N(C)CCN(C)CCN(C)C [Example 11, O-{N-[2-{N-[2-(N,N-dimethylamino)ethyl]-N-methylamino}-ethyl]-N-methylaminocarbonyl}-3-L-phenyllactyl-L-histidineamide of (2S,3R,4S)-2-amino-1-cyclohexyl-3,4-dihydroxy-6-methylheptane]",IC50,Human Renin,1 nM
CC(C)CC(=O)N[C@H](C(=O)N[C@H](C(=O)N[C@@H](CC(C)C)[C@@H](O)CC(=O)N[C@@H](C)C(=O)N[C@@H](CC(C)C)[C@@H](O)CC(=O)O)C(C)C)C(C)C [pepstatin] (Isovaleryl-VV[Sta]A[Sta]-OH),inhibitor of pepsin,pepsin,inhibitor
same,inhibitor of renin,renin,inhibitor
same,reduce blood pressure in vivo,hog renin,found to reduce blood pressure in vivo
same,inhibitor of cathepsin D,cathepsin D,inhibitor
CC(C)C[C@H](O)[C@H](O)[C@H](CC1CCCCC1)NC(=O)[C@H](C)CNC(=O)[C@H](Cc1ccccc1)OC(=O)N(C)CCN(C)CCN(C)C [Example 12],IC50,Human Renin,110 nM
CC(C)C[C@H](NC(=O)[C@H](Cc1ccccc1)OC(=O)N(C)CCN(C)CCN(C)C)C(=O)N[C@@H](CC1CCCCC1)[C@@H](O)[C@@H](O)CC(C)C [Example 10],IC50,Human Renin,2.4 nM
